Assay results: US20230077584A1, “METHODS AND COMPOSITIONS FOR MODULATING ENTEROENDOCRINE CELLS” (Flagship Pioneering Innovations VI, LLC, priority 2021, published 2023)

What was measured:
[1] = test system: mouse intestinal organoids; conditions: ENR media supplemented with factor; based on published data (Yin et al); cited from earlier work
[2] = test system: mouse intestinal organoids; assay: mouse small intestinal organoid differentiation, lineage markers by Q-PCR; assay type: cell-based; conditions: ENR media, Q-PCR after 5 days of treatment, FIG. 2
From the text: Cryopreserved mouse intestinal organoids derived from small intestine were obtained from Stem Cell Technologies. The organoids were thawed and propagated in Intesticult Growth Medium (Mouse) (purchased from Stem Cell Technologies) following the company's instructions. Briefly, ˜100 organoid fragments/well are embedded in Matrigel domes in 24-well plates and growth media is renewed every 2-3 days. The organoids are passaged every 5-6 days in 1:4 ratio. To assess the potential of the predicted perturbations to induce the enteroendocrine cell lineage during organoid differentiation, we established an in vitro assay to induce the various intestinal lineages (enterocytes, goblet cells, Paneth cells, enteroendocrine cells) based on published data (Yin et al, Nat Methods. 2014 January; 11(1):106-12). Briefly, organoid fragments are embedded in Matrigel and grow in custom-made media in the presence of EGF, Noggin, Rspondin (ENR) supplemented with the indicated factors (Table 4) that are known to induce markers of the various intestinal lineages. The expression of markers and the induction of the various cell lineages was assessed by Q-PCRs after 5 days of treatments (FIG. 2). Further characterization of the organoids will be performed by immunofluorescence staining and flow cytometry. […]

| Structure (SMILES) | Cell lineage (factors known to induce markers of intestinal lineages) [1] | expression of chromogranin A and chromogranin B genes, markers of enteroendocrine cells [2] |
| --- | --- | --- |
| C[C@H](NC(=O)Cc1cc(F)cc(F)c1)C(=O)N[C@H](C(=O)OC(C)(C)C)c1ccccc1 [DAPT] | Enteroendocrine Cells, Paneth | induces the expression of chromogranin A and chromogranin B genes |
| Cc1ccc2nc(NC(=O)CSc3nc4c(c(=O)n3-c3ccccc3)SCC4)sc2c1 [IWP2] | Enterocytes, Enteroendocrine Cells |  |
